# Activity calls are given as the source filed them. The calls are words filed in the database; no cut-off is given here.
# How the values were obtained:
# [1] = Binding affinity to 5'-dabcyl/3'-fluorescein labeled cKit G-quadruplex DNA (unknown origin) assessed as change in melting temperature at 10 uM by fluorescence assay
# [2] = species: Homo sapiens; experiment: Binding affinity to 5'-dabcyl/3'-fluorescein labeled human telomeric sequence G-quadruplex DNA assessed as change in melting temperature at 10 uM by fluorescence assay
# [3] = target: DNA topoisomerase 2-alpha (Homo sapiens, UniProt P11388); experiment: Inhibition of human DNA topoisomerase 2alpha-mediated decatenation of kinetoplast DNA after 60 mins by agarose gel electrophoresis
# [4] = Cytotoxicity against human MCF7 cells after 72 hrs by MTT assay; assay type: functional, cell-based; conditions: MCF7, 72 h
# [5] = Binding affinity to 5'-dabcyl/3'-fluorescein labeled duplex DNA (unknown origin) assessed as change in melting temperature at 10 uM by fluorescence assay
# [6] = Binding affinity to 5'-dabcyl/3'-fluorescein labeled pu27 G-quadruplex DNA (unknown origin) assessed as change in melting temperature at 10 uM by fluorescence assay
# [7] = Inhibition of Escherichia coli DNA topoisomerase 4 decatenation activity using kinetoplast DNA as substrate after 60 mins by agarose gel electrophoresis
# [8] = Cytotoxicity against human HeLa cells after 72 hrs by MTT assay; assay type: functional, cell-based
# [9] = tested on: Escherichia coli; experiment: Induction of Escherichia coli pBR322 DNA unwinding at 0.1 to 10 uM after 1 hr by agarose gel electrophoresis
# [10] = Inhibition of thiazole orange binding to duplex DNA (unknown origin) by fluorescence assay
# [11] = Inhibition of thiazole orange binding to pu27 G-quadruplex DNA (unknown origin) by fluorescence assay
# [12] = Inhibition of thiazole orange binding to human telomeric sequence G-quadruplex DNA by fluorescence assay
# [13] = Inhibition of thiazole orange binding to cKit G-quadruplex DNA (unknown origin) by fluorescence assay
# Sequence of DNA topoisomerase 2-alpha (P11388 whole entry): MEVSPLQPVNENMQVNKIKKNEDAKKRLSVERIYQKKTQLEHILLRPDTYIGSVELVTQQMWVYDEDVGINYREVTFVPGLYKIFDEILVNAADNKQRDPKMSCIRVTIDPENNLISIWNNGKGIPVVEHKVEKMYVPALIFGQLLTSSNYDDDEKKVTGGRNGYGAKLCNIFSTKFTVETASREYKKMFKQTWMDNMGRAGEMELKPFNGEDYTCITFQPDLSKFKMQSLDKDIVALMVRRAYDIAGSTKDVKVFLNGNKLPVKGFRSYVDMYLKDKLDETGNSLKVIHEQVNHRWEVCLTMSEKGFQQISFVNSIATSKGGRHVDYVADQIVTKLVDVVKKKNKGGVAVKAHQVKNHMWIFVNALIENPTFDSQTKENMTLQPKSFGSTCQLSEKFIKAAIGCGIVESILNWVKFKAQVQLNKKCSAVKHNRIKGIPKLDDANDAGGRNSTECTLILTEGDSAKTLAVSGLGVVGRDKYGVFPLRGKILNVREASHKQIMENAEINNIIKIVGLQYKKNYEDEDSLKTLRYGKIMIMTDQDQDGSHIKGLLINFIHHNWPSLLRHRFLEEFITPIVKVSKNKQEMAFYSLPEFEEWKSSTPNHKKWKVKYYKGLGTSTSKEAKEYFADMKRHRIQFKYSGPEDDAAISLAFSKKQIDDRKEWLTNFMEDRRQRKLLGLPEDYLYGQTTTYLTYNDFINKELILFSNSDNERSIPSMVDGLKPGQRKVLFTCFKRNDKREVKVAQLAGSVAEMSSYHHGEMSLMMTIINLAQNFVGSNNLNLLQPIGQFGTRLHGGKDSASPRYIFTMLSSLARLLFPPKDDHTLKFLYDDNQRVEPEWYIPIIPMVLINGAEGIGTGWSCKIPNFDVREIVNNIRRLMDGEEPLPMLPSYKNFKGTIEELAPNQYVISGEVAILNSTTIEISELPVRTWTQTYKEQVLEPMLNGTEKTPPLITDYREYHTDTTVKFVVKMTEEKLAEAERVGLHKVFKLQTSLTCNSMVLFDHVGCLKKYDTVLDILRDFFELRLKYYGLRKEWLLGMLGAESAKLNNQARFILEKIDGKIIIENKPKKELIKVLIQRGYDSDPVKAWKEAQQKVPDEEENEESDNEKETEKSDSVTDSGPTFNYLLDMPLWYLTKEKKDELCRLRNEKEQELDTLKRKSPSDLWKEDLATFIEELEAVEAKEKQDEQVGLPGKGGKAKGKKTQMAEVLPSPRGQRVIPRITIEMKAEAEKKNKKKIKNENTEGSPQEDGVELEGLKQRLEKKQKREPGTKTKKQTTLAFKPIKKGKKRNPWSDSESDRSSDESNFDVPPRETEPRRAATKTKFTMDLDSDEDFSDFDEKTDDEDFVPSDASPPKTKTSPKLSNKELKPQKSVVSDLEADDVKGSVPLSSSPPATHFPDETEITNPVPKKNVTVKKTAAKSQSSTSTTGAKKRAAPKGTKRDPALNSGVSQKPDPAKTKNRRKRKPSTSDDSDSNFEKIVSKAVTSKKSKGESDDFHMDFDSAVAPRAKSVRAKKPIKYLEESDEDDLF
SMILES,ΔTm [1] [°C],ΔTm [2] [°C],IC50 [3] [µM],IC50 [4] [µM],ΔTm [5] [°C],ΔTm [6] [°C],IC50 [7] [µM],IC50 [8] [µM],Activity [9],EC50 [10] [µM],EC50 [11] [µM],EC50 [12] [µM],EC50 [13] [µM]
CN(C)CCNc1nc2ccccc2c2nc3ccccc3nc12,9.7,8.2,19.5,2.34,4.3,4,> 100,2.98,–,–,–,–,–
Cc1cc2c(=O)n(CCCN(C)C)c3ccccc3c2nn1,1.8,1.7,> 100,–,0.1,2.1,–,49.1,–,–,–,–,–
CCN(CC)CCNc1nc2ccccc2c2nc3ccccc3nc12,5.8,1.1,> 100,–,1.1,3.8,–,6.87,–,–,–,–,–
CN(C)CCSc1nc2ccccc2c2nc3ccccc3nc12,11.2,10.6,17.8,2.41,4.2,8.8,> 100,6.03,–,–,–,–,–
CO[C@@H]1[C@@H](OC(N)=O)[C@@H](O)[C@H](Oc2ccc3c(O)c(NC(=O)c4ccc(O)c(CC=C(C)C)c4)c(=O)oc3c2C)OC1(C)C [NOVOBIOCIN],–,–,–,–,–,–,63.4,–,–,–,–,–,–
CN(C)CCCNc1nc2ccccc2c2nc3ccccc3nc12,6.9,6.1,11.3,2.96,2.2,5.9,> 100,5.37,–,–,–,–,–
Cc1cc2c(=O)n(CCN(C)C)c3ccccc3c2nn1,2.7,1.2,> 100,–,0.2,0.6,–,40.9,–,–,–,–,–
CCN(CC)CCOc1nc2ccccc2c2nc3ccccc3nc12,2.5,1,> 100,–,0.1,0.8,–,25.4,–,–,–,–,–
CCN(CC)CCCNc1nc2ccccc2c2nc3ccccc3nc12,4.7,2,13.9,–,1.5,5.9,–,6.53,–,–,–,–,–
COc1cccc2c1C(=O)c1c(O)c3c(c(O)c1C2=O)C[C@@](O)(C(=O)CO)C[C@@H]3O[C@H]1C[C@H](N)[C@H](O)[C@H](C)O1 [DOXORUBICIN],–,–,3,–,–,–,–,–,Active,–,–,–,–
CN(CCCCCNc1nc2ccccc2c2nc3ccccc3nc12)Cc1ccccc1,1.5,3.1,> 100,> 100,0,5.9,> 100,> 100,–,–,–,–,–
CN(C)CCn1c(=O)c2nc3ccccc3nc2c2ccccc21,4.8,2.7,35.6,–,0.3,4.1,–,7.18,–,–,–,–,–
c1ccc2nc3c(nc2c1)c(NCCN1CCCCC1)nc1ccccc13,2,0.4,19.4,–,1.8,1.4,–,10.3,–,–,–,–,–
O=c1[nH]c2ccccc2c2nc3ccccc3nc12,0,0,> 100,32.7,0,0,> 100,19.8,–,–,–,–,–
CCN(CC)CCn1c(=O)c2nc3ccccc3nc2c2ccccc21,4.5,2.3,87.6,–,0.4,3.5,–,8.52,–,–,–,–,–
O=c1c2nc3ccccc3nc2c2ccccc2n1CCN1CCOCC1,0,0.8,> 100,> 100,0,0,> 100,> 100,–,–,–,–,–
c1ccc2nc3c(nc2c1)c(NCCN1CCOCC1)nc1ccccc13,0,0,100,> 100,0,0,> 100,> 100,–,–,–,–,–
O=C1c2ccccc2C(=O)c2c(NCCNCCO)ccc(NCCNCCO)c21 [AMETANTRONE],–,–,–,0.51,–,–,–,0.9,–,–,–,–,–
CN(C)CCCCNc1nc2ccccc2c2nc3ccccc3nc12,11.6,9.8,5.14,1.6,4.2,9.4,> 100,2.32,–,1.26,0.57,4.48,0.83
CN(C)CCCn1c(=O)c2nc3ccccc3nc2c2ccccc21,7.8,4.7,> 100,5.99,0.4,5.5,> 100,2.04,–,10.9,1.32,–,3.57
CN(C)CCCOc1nc2ccccc2c2nc3ccccc3nc12,3.8,1.4,23.8,–,0.5,4.1,–,6.1,–,–,–,–,–
CN(C)CCCCn1c(=O)c2nc3ccccc3nc2c2ccccc21,7.4,4.8,34.3,–,0.9,6.4,–,11.1,–,–,–,–,–

# Source: ChEMBL document CHEMBL3875142, “Quinolino[3,4-b]quinoxalines and pyridazino[4,3-c]quinoline derivatives: Synthesis, inhibition of topoisomerase IIα, G-quadruplex binding and cytotoxic properties” (Eur J Med Chem, 2016)
